Measured values taken from ChEMBL document CHEMBL1201862, “PubChem BioAssay data set” (2004).
Blank lines part the entries; values can stand above or below the compound they belong to. Calls of active or inactive are those of the source.

Legend:
[1] = target: T1, RNA-binding protein pos-1 (Caenorhabditis elegans, UniProt G5EF15); assay: disruptors of C. elegans POS-1 RNA interaction – biochemical, fluorescence polarization, dose response (AID 1964);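 note: purified POS-1 fused to maltose binding protein made in E. coli; potency of compounds blocking POS-1 binding to fluorescent RNA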
T1 sequence (G5EF15 whole entry): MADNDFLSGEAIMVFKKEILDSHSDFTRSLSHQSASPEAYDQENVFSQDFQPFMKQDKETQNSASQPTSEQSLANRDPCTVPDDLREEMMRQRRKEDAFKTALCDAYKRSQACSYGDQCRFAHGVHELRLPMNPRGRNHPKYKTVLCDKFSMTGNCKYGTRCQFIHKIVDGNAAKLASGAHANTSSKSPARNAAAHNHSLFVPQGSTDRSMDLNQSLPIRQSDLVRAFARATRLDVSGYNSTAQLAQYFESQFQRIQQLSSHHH

[2] = target: T2, Zinc finger protein mex-5 (Caenorhabditis elegans, UniProt Q9XUB2); assay: potency of MEX-5 RNA-binding blockers – biochemical, C. elegans, fluorescence polarization, dose response (AID 1960)
T2 sequence (Q9XUB2 whole entry): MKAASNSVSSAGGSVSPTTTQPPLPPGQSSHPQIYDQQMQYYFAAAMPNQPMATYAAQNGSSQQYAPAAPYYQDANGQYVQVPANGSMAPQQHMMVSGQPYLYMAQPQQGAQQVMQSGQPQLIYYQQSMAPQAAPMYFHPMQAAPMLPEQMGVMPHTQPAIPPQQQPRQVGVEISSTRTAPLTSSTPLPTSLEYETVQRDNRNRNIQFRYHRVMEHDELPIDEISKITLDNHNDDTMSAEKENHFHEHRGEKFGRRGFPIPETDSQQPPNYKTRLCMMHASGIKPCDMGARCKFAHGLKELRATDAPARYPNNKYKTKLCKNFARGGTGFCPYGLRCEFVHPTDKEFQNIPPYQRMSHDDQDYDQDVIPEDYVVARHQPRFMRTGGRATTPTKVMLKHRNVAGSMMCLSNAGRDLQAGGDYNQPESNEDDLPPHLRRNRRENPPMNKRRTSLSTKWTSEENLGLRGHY

[3] = target: Large T antigen (Simian virus 40, UniProt P03070); type: functional, Betapolyomavirus macacae;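 note: Confirmatory-stage PubChem screen for compounds that inhibit SV40 T antigen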
[4] = target: Intestinal-type alkaline phosphatase (Mus musculus, UniProt P24822); assay: PubChem AID 488785; type: functional
[5] = target: T3, Alkaline phosphatase, tissue-nonspecific isozyme (Homo sapiens, UniProt P05186); assay: TNAP enzyme inhibition by screening hits, dose response, selectivity assay for mouse IAP inhibitor project, biochemical, human TNAP, uHTS hits (AID 488906); type: functional
T3 sequence (P05186 whole entry): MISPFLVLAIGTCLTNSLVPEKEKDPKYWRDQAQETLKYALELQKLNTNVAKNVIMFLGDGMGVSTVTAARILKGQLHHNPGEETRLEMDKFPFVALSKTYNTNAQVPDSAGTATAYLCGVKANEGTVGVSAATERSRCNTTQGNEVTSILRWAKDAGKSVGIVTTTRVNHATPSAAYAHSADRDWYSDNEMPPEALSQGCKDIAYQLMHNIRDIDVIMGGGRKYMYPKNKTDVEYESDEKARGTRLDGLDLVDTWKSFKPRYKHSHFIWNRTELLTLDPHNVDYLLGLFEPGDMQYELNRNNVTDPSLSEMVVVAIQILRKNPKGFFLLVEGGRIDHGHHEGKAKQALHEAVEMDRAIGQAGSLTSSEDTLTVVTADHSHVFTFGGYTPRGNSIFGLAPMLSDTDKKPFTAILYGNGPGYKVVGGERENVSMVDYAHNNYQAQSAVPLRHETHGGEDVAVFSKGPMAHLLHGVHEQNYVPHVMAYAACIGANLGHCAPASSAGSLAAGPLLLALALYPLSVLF

[6] = target: Intestinal-type alkaline phosphatase (Homo sapiens, UniProt P09923); assay: inhibition of human intestinal alkaline phosphatase – biochemical, dose response (AID 488876); type: functional
[7] = target: T4, Delta-type opioid receptor (Homo sapiens, UniProt P41143); assay: HTS Image-Based Screen for Antagonists of the DOR Receptor. [Related pubchem assays (depositor defined):AID1777, AID1785, AID1786, AID2133]; type: functional
[8] = target: T5, Mu-type opioid receptor (Homo sapiens, UniProt P35372); assay: HTS Image-Based Screen for Agonists of the MOR Receptor. [Related pubchem assays (depositor defined):AID1777, AID1785, AID1786, AID2133]; type: functional
[9] = target: T4, Delta-type opioid receptor; assay: HTS Image-Based Screen for Agonists of the DOR Receptor. [Related pubchem assays (depositor defined):AID1777, AID1786, AID2133]; type: functional
[10] = target: T6, Kappa-type opioid receptor (Homo sapiens, UniProt P41145); type: functional
[11] = target: T6, Kappa-type opioid receptor; type: functional; remark: listed apart in the source
[12] = target: T6, Kappa-type opioid receptor; assay: SAR analysis of small molecule agonists of the kappa opioid receptor via a luminescent beta-arrestin assay. [Related pubchem assays (depositor defined):AID1777, AID1786, AID1966, AID2133, AID2136, AID2348, AID2352, AID2357, AID2359, AID2370, AID2420, AID2478, AID2491, AID2492, AID2493, AID2497, AID2498, AID2500, AID449737, AID488822, AID488842]; type: functional
[13] = target: T5, Mu-type opioid receptor; assay: mu opioid receptor activators, image-based, SAR follow-up (AID 2352); type: functional
[14] = target: T4, Delta-type opioid receptor; assay: DOR agonists, SAR follow-up, image-based (AID 2370); type: functional
[15] = target: T6, Kappa-type opioid receptor; assay: kappa opioid receptor blockers, image-based, SAR follow-up (AID 2348); type: functional
[16] = target: T7, Coagulation factor XII (Homo sapiens, UniProt P00748); type: functional;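 note: activated factor XIIa alpha cleaving a fluorogenic AMC peptide substrate; inhibitor potency from loss of enzyme activity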
T7 sequence (P00748 whole entry): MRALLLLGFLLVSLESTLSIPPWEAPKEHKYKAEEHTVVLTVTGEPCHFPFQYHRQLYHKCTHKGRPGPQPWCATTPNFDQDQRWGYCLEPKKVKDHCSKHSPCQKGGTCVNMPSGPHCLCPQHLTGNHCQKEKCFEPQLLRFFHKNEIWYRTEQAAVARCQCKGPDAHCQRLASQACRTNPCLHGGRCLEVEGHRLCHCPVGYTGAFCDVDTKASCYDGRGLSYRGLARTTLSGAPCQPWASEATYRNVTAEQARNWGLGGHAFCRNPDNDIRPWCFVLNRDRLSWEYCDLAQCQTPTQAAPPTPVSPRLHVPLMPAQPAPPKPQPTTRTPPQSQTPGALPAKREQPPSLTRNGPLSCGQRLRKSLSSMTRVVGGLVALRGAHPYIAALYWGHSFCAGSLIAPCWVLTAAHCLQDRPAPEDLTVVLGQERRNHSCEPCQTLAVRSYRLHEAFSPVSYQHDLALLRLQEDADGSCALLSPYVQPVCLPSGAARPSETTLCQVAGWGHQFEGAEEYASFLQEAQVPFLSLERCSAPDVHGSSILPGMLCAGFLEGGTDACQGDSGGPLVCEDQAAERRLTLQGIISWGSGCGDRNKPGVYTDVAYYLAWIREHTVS

[17] = target: T5, Mu-type opioid receptor; assay: mu opioid receptor blockers – image-based, SAR follow-up (AID 2420); type: functional;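 note: compounds added before stimulation of receptor with agonist DAMGO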
[18] = target: T6, Kappa-type opioid receptor; assay: kappa opioid receptor activation potency – imaging, image-based, SAR follow-up (AID 2359); type: functional
[19] = target: T4, Delta-type opioid receptor; assay: delta opioid receptor blockers – image-based, SAR follow-up (AID 2357); type: functional
[20] = target: T6, Kappa-type opioid receptor; assay: SAR analysis of small molecule agonists of the kappa opioid receptor via a luminescent beta-arrestin assay - Set 3. [Related pubchem assays (depositor defined):AID1777, AID1785, AID1786, AID1966, AID2133, AID2136, AID2284, AID2500]; type: functional
[21] = system: HEK293; assay: Fluorescence-based counterscreen for potentiators or agonists of NPY-Y2: cell-based high-throughput dose response assay to identify inhibitors of cyclic nucleotide gated ion channel (CNGC) activity. In this assay, the parental HEK293 cell line transfected with a cyclic-nucleotide gated ion channel (CNGC)-based cAMP sensor is used to measure inhibition of isoproterenol-induced CNGC activity by test compound.; type: functional; details: Homo sapiens;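 note: stimulus is 1 µM isoproterenol at EC100 plus PDE inhibitor Ro 20-1724 at 25 µM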
[22] = target: T8, Runt-related transcription factor 1/Core-binding factor subunit beta (Homo sapiens, UniProt Q01196+Q13951); assay: disruptors of Runt domain/CBFb-SMMHC interaction – biochemical, FRET, Cerulean-Runt, Venus-CBFb-SMMHC, uHTS, […] (AID 1434); type: protein assay
[23] = target: T9, Neuropeptide Y receptor type 2 (Homo sapiens, UniProt P49146); assay: Fluorescence-based cell-based high-throughput dose response assay for agonists of NPY-Y2. [Related pubchem assays: 1703 (Screening assay (CNGC inhibitors).), 1359 (Screening assay (NPY-Y2 potentiators or agonists).), 1304 (Screening assay (NPY-Y1 potentiators or agonists).), 1710 (Screening assay (NPY-Y2 agonists).), 1791 (Summary AID.)]; type: functional
T9 sequence (P49146 whole entry): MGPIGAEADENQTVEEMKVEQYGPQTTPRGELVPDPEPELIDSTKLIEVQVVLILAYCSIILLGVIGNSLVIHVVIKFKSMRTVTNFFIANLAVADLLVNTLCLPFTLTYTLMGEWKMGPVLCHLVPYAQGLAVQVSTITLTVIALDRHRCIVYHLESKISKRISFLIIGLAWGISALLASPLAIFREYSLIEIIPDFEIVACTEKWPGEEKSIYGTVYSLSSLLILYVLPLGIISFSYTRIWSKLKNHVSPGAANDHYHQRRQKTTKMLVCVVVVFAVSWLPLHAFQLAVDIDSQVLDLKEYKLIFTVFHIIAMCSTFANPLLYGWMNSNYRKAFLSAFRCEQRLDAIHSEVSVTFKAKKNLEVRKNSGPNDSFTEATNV

[24] = target: T8, Runt-related transcription factor 1/Core-binding factor subunit beta; assay: Runt domain/CBFb-SMMHC interaction disruptors – biochemical, TR-FRET (AID 1438); type: protein assay
[25] = target: T10, Neuropeptide Y receptor type 1 (Homo sapiens, UniProt P25929); assay: Fluorescence-based counterscreen for agonists of NPY-Y2: cell-based high-throughput dose response assay for agonists of NPY-Y1.; type: functional
T10 sequence (P25929 whole entry): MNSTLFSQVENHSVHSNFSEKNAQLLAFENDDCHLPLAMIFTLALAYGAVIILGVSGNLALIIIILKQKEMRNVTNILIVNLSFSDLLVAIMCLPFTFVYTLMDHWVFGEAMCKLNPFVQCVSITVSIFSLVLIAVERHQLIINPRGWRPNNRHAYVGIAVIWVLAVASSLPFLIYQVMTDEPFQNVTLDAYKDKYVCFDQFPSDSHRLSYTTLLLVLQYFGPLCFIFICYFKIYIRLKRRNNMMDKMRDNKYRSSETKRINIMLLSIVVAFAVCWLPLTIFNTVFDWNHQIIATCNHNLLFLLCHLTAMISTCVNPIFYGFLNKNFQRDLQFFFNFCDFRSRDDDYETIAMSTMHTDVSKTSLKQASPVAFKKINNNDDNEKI

T4 sequence (P41143 whole entry): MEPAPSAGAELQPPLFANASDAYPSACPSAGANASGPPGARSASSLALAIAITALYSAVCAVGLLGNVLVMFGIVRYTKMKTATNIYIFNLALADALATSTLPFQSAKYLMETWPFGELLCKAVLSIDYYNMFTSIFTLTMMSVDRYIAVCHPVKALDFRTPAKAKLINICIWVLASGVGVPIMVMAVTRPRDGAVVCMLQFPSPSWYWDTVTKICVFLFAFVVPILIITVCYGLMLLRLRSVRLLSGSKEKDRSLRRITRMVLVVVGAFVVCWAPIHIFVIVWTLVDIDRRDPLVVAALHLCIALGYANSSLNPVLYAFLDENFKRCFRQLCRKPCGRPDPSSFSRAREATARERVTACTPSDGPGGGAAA
T6 sequence (P41145 whole entry): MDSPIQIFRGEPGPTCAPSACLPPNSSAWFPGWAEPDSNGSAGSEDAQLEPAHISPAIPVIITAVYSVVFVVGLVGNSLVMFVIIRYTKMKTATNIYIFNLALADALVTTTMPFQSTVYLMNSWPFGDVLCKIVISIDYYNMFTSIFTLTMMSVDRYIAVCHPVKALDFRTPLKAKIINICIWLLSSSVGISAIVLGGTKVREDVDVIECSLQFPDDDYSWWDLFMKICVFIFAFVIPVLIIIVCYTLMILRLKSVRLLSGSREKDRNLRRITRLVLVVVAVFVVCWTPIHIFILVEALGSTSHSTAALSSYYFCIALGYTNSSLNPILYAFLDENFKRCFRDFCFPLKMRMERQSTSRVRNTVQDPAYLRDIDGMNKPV
T5 sequence (P35372 whole entry): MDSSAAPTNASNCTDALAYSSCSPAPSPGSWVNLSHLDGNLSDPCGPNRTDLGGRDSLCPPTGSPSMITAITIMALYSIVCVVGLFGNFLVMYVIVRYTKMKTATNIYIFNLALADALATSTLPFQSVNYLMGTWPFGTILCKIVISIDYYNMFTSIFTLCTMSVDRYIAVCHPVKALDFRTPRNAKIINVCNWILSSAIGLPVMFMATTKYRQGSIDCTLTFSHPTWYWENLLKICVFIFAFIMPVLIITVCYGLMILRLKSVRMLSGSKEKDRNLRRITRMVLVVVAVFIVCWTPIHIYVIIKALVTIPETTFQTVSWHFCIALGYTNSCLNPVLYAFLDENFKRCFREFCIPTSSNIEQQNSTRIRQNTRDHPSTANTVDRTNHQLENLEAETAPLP
T8 sequence (Q01196 whole entry, the tested form may be a part): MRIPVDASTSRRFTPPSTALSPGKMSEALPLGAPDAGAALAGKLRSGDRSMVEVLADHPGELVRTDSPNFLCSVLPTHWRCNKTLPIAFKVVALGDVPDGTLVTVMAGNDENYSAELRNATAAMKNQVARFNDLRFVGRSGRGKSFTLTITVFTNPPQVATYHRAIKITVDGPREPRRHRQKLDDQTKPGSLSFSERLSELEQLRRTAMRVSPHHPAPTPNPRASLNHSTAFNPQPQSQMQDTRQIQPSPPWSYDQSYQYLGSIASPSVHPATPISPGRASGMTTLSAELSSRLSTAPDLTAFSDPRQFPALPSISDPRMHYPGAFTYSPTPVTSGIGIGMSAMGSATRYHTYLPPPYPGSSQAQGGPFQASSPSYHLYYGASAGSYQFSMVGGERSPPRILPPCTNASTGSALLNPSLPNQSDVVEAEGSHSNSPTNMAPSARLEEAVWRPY
T8 sequence (Q13951 whole entry, the tested form may be a part): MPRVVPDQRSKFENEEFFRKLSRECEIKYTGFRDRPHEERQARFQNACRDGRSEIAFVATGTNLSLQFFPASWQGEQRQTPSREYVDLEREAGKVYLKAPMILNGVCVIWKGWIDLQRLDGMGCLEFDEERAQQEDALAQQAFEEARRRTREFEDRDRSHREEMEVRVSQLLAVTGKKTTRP
Sequence of Large T antigen (P03070 whole entry): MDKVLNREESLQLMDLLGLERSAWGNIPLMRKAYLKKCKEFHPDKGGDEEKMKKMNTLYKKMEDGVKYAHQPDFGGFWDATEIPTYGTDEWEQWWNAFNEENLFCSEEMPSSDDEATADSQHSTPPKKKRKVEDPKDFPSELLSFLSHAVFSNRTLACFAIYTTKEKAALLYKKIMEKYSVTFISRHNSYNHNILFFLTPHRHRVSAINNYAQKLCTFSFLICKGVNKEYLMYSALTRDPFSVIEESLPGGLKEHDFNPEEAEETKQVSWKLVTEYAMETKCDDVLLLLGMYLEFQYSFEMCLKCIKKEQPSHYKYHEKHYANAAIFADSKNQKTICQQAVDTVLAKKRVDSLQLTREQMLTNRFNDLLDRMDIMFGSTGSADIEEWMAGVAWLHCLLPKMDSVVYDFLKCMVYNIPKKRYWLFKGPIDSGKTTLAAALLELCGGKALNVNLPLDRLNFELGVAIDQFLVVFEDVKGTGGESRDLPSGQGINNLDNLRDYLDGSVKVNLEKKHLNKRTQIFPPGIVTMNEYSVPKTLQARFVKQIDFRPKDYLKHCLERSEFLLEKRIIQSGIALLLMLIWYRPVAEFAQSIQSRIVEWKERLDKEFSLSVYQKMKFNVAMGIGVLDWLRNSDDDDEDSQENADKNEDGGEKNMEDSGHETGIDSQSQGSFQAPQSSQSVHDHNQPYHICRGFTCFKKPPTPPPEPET
Sequence of Intestinal-type alkaline phosphatase (Homo sapiens, UniProt P09923) (P09923 whole entry): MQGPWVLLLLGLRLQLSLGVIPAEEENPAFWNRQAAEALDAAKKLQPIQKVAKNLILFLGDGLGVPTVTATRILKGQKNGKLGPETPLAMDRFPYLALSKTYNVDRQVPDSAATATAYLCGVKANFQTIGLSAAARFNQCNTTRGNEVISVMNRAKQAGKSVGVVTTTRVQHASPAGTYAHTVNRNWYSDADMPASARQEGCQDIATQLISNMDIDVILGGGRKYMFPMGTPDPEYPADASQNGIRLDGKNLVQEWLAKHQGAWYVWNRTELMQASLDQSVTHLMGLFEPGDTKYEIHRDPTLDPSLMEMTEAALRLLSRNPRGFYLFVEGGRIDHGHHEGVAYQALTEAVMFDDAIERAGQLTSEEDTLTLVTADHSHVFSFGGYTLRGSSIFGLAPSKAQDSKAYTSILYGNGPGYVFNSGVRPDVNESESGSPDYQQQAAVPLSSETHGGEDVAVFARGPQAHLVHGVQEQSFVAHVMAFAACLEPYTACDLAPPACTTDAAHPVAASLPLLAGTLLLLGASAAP
Sequence of Intestinal-type alkaline phosphatase (Mus musculus, UniProt P24822) (P24822 whole entry): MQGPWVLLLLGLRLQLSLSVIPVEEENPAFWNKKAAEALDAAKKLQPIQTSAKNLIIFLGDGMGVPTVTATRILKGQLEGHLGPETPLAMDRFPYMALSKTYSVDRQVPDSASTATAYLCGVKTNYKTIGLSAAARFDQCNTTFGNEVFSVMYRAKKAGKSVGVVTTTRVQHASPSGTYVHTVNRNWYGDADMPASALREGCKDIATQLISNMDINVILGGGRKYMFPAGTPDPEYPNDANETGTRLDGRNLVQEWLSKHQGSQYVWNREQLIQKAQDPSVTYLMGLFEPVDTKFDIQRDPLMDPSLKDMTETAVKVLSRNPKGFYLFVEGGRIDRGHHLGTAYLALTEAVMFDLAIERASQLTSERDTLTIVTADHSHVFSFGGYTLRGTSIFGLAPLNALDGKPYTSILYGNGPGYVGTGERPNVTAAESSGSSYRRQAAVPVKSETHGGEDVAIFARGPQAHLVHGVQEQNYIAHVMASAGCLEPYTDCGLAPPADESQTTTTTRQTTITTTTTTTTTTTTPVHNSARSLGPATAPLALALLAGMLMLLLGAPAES

- EC50 [1]: 65.8 µM (active)
- EC50 [2]: 14.6 µM (active)
- IC50 [3]: 20.8 µM (active)
- IC50 [4]: 5.37 µM (active)
- IC50 [5]: > 100 µM (inactive)
- IC50 [6]: > 100 µM (inactive)
Compound: CCOc1ccc(S(=O)(=O)Nc2cc(Sc3nnc[nH]3)c3oc(=O)sc3c2)cc1

- IC50 [7]: > 32 µM (inactive)
- EC50 [8]: > 32 µM (inactive)
- EC50 [9]: > 32 µM (inactive)
- EC50 [10]: < 0.5 µM
- EC50 [11]: 0.251 µM
- EC50 [12]: 0.645 µM (active)
- EC50 [13]: > 32 µM (inactive)
- EC50 [14]: > 32 µM (inactive)
- IC50 [15]: > 32 µM (inactive)
- IC50 [16]: > 50 µM (inactive)
- IC50 [17]: > 32 µM (inactive)
- EC50 [18]: 0.168 µM (active)
- IC50 [19]: > 32 µM (inactive)
Compound: CCC(C)(C(=O)NC1CCCCC1)N(Cc1ccco1)C(=O)c1ccccn1 (stereo not given)

- EC50 [20]: > 20 µM (inactive)
Compound: COc1ccc(Cn2c(SCc3ccc(Br)cc3)nnc2-c2ccccn2)cc1

Compound: Cc1cc(/C=N/NC(=O)Cn2c3ccccc3c(=O)c3ccccc32)c(C)n1-c1ccc(Cl)cc1
- EC50 [21]: 3.28 µM (active)
- IC50 [22]: 4.69 µM (active)
- EC50 [23]: > 35.4 µM (not active)
- IC50 [24]: 11.6 µM (active)
- EC50 [25]: > 35.4 µM (not active)
